Laboratory results published in the supplement of paper PMC10307832.

What was measured:
Assay in all cases: relative viability (nuclei count vs DMSO), 5 days (fraction); higher = more cells survive
Bortezomib + Dasatinib = compound: CC(C)C[C@H](NC(=O)[C@H](Cc1ccccc1)NC(=O)c1cnccn1)B(O)O [Bortezomib] + Cc1nc(Nc2ncc(C(=O)Nc3c(C)cccc3Cl)s2)cc(N2CCN(CCO)CC2)n1 [Dasatinib] (partner 0.075 µM)
Outline: (§1)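 Lung cancer cell lines, seeded in 1536-well plates, were treated the following day by pin tool with a single drug or with five library-drug doses (not always all listed) in √10 steps on top of a fixed anchor-drug dose. Cells were fixed and nuclei stained in one step after 5 days, and nuclei were counted. Relative viability is the nuclei count for treated wells divided by that for vehicle wells, reported as medians of duplicate plates.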

Obatoclax + Luminespib = compound: COC1=CC(c2cc3ccccc3[nH]2)=N/C1=C\c1[nH]c(C)cc1C [Obatoclax] + CCNC(=O)c1noc(-c2cc(C(C)C)c(O)cc2O)c1-c1ccc(CN2CCOCC2)cc1 [Luminespib] (partner 0.01 µM)
Outline: as §1

Obatoclax + Linsitinib = compound: COC1=CC(c2cc3ccccc3[nH]2)=N/C1=C\c1[nH]c(C)cc1C [Obatoclax] + C[C@]1(O)C[C@@H](c2nc(-c3ccc4ccc(-c5ccccc5)nc4c3)c3c(N)nccn32)C1 [Linsitinib] (partner 1 µM)
Outline: as §1

Obatoclax + AZD7762 = compound: COC1=CC(c2cc3ccccc3[nH]2)=N/C1=C\c1[nH]c(C)cc1C [Obatoclax] + NC(=O)Nc1cc(-c2cccc(F)c2)sc1C(=O)N[C@H]1CCCNC1 [AZD7762] (partner 0.2 µM)
Outline: as §1

Row | Cell Line | relative viability (Bortezomib + Dasatinib; first compound 0.0002 µM) | relative viability (Bortezomib + Dasatinib; first compound 0.000632 µM) | relative viability (Bortezomib + Dasatinib; first compound 0.002 µM) | relative viability (Bortezomib + Dasatinib; first compound 0.006325 µM) | relative viability (Bortezomib + Dasatinib; first compound 0.02 µM) | relative viability (Obatoclax + Luminespib; first compound 0.01 µM) | relative viability (Obatoclax + Luminespib; first compound 0.03162 µM) | relative viability (Obatoclax + Luminespib; first compound 0.1 µM) | relative viability (Obatoclax + Luminespib; first compound 0.3162 µM) | relative viability (Obatoclax + Luminespib; first compound 1 µM) | relative viability (Obatoclax + Linsitinib; first compound 0.01 µM) | relative viability (Obatoclax + Linsitinib; first compound 0.03162 µM) | relative viability (Obatoclax + Linsitinib; first compound 0.1 µM) | relative viability (Obatoclax + Linsitinib; first compound 0.3162 µM) | relative viability (Obatoclax + Linsitinib; first compound 1 µM) | relative viability (Obatoclax + AZD7762; first compound 0.01 µM) | relative viability (Obatoclax + AZD7762; first compound 0.03162 µM) | relative viability (Obatoclax + AZD7762; first compound 0.1 µM) | relative viability (Obatoclax + AZD7762; first compound 0.3162 µM) | relative viability (Obatoclax + AZD7762; first compound 1 µM)
1 | NCI-H1666 | 0.759 | 0.845 | 0.837 | 0.329 | 0.326 | 1.05 | 1.06 | 1.03 | 0.509 | 0.378 | 0.876 | 0.822 | 0.745 | 0.313 | 0.275 | 0.959 | 0.823 | 0.789 | 0.815 | 0.581
2 | NCI-H1437 | 0.335 | 0.374 | 0.486 | 0.129 | 0.11 | 1.09 | 1.17 | 1.04 | 0.983 | 0.956 | 1.01 | 0.988 | 0.979 | 0.912 | 0.705 | 1.12 | 1.16 | 1.03 | 1.08 | 0.895
3 | NCI-H1944 | 0.225 | 0.212 | 0.222 | 0.214 | 0.137 | 0.794 | 0.66 | 0.735 | 0.75 | 0.636 | 1.1 | 1.2 | 1.27 | 1.19 | 1.3 | 0.481 | 0.695 | 0.492 | 0.551 | 0.494
4 | NCI-H1792 | 0.722 | 0.59 | 0.504 | 0.759 | 0.443 | 0.419 | 0.474 |  | 0.376 | 0.394 | 0.667 | 0.502 |  | 0.48 | 0.561 | 0.732 | 0.482 | 0.513 | 0.527 | 0.213
5 | NCI-H1355 | 0.69 | 0.753 | 0.813 | 0.18 | 0.156 | 0.641 | 0.588 | 0.769 | 0.632 | 0.78 | 0.867 | 0.87 | 0.802 | 0.739 | 0.75 | 0.698 | 0.709 | 0.613 | 0.735 | 0.647
6 | NCI-H1793 | 0.35 | 0.324 | 0.381 | 0.361 | 0.168 | 0.119 | 0.128 | 0.187 | 0.183 | 0.192 | 0.802 | 0.662 | 0.935 | 0.77 | 0.78 | 0.484 | 0.419 | 0.499 | 0.368 | 0.209
7 | NCI-H2347 | 0.685 | 0.353 | 0.332 | 0.321 | 0.219 | 0.595 | 0.374 |  | 0.269 | 0.23 | 0.915 | 0.91 | 0.787 | 0.91 | 0.909 | 0.687 | 0.836 | 0.777 | 0.695 | 0.869
8 | A-427 | 0.611 | 0.746 | 0.716 | 0.408 | 0.104 | 0.952 | 0.962 | 0.916 | 0.775 | 0.674 | 1.07 | 0.775 | 1.11 | 1.15 | 1.13 | 0.746 | 0.757 | 0.496 | 0.467 | 0.441
9 | PC-14 | 0.294 | 0.236 | 0.168 | 0.028 | 0.0371 | 0.132 | 0.138 | 0.148 | 0.13 | 0.146 | 0.911 | 1.01 | 0.892 | 0.902 | 0.58 | 0.304 | 0.328 | 0.269 | 0.339 | 0.112
10 | NCI-H2087 | 0.684 | 0.819 | 0.458 | 0.0422 | 0.037 | 0.164 | 0.166 | 0.161 | 0.121 | 0.121 | 0.949 | 0.773 | 0.748 | 0.429 | 0.264 | 1.19 | 1.37 | 1.15 | 1.21 | 0.9
11 | HOP-62 | 0.581 | 0.645 | 0.713 | 0.228 | 0.068 | 0.854 | 0.815 | 0.846 | 0.88 | 0.926 | 0.784 | 1.07 | 0.94 | 1.13 | 0.933 | 0.402 | 0.519 | 0.515 | 0.59 | 0.508
12 | EKVX | 0.544 | 0.526 | 0.707 | 0.397 | 0.185 | 0.899 | 0.954 | 0.979 | 0.67 | 0.728 | 0.978 | 0.923 | 1.07 | 0.907 | 0.876 | 0.614 |  | 0.348 | 0.756 | 0.706
13 | EMC-BAC-2 | 0.313 | 0.318 | 0.494 | 0.157 | 0.188 | 1.2 | 1.19 | 1.16 | 1.08 | 1.02 | 0.796 | 0.817 | 0.827 | 0.797 | 0.875 | 1.12 | 1.11 | 0.963 | 1.02 | 0.874
14 | HARA | 0.206 | 0.239 | 0.259 | 0.105 | 0.0621 | 0.889 | 0.827 | 0.728 | 0.692 | 1.05 | 0.923 | 0.316 | 1.03 | 0.703 | 0.919 | 0.379 | 0.237 | 0.397 | 0.173 | 0.244
15 | LU99A | 0.521 | 0.381 | 0.655 | 0.433 | 0.174 | 0.268 | 0.243 | 0.259 | 0.229 | 0.246 | 0.486 | 0.437 | 0.498 | 0.307 | 0.475 | 0.379 | 0.359 |  | 0.146 | 0.135
16 | LK-2 | 0.287 | 0.304 | 0.203 | 0.114 | 0.138 | 0.183 | 0.23 | 0.231 | 0.189 | 0.164 | 0.524 | 0.383 | 0.826 | 0.521 | 0.662 | 0.456 | 0.374 | 0.444 |  | 0.568
17 | NCI-H441 | 0.646 | 0.507 | 0.282 | 0.136 | 0.119 | 0.416 | 0.316 | 0.278 | 0.223 | 0.236 | 0.683 | 0.551 | 0.394 | 0.52 | 0.435 | 1.33 | 1.28 | 1.16 | 0.941 | 1.08
18 | NCI-H23 | 0.913 | 0.976 | 0.76 | 0.224 | 0.108 | 0.21 | 0.193 | 0.195 | 0.185 | 0.191 | 0.588 | 0.598 | 0.647 | 0.606 | 0.598 | 0.271 | 0.313 | 0.192 | 0.219 | 0.158
19 | NCI-H647 | 0.203 | 0.156 | 0.188 | 0.0197 | 0.017 | 0.128 | 0.186 | 0.179 | 0.21 | 0.114 | 1.14 | 1.13 | 1.11 | 0.317 | 0.254 | 0.443 | 0.606 | 0.207 | 0.253 | 0.114
20 | 201T | 0.571 | 0.607 | 0.536 | 0.589 | 0.283 | 1.1 | 1.04 | 1.06 | 1.08 | 1.12 | 1.04 | 1.01 | 1.02 | 1.06 | 1.03 | 0.608 | 0.601 | 0.579 | 0.614 | 0.702
21 | NCI-H1734 | 0.469 | 0.45 | 0.516 | 0.112 | 0.109 | 0.201 | 0.188 | 0.2 | 0.187 | 0.18 | 0.808 | 0.799 |  | 0.728 | 0.749 | 0.513 | 0.499 | 0.456 | 0.472 | 0.238
22 | NCI-H596 | 0.488 | 0.519 | 0.596 | 0.2 | 0.184 | 1.04 | 0.852 | 0.859 | 0.611 | 0.574 | 1.07 | 0.945 | 0.809 | 0.66 | 0.731 | 1.06 | 1.1 | 0.773 | 0.443 | 0.498
